Test system: HTR8 cells
Test: HTR8 placental cell line proliferation monitored in real time using the xCELLigence system
Format: cell-based
Conditions: 5 or 10 uM of SRI31215 administered to HTR8 placental cell line
Experimental: FIGS. 3A through P are graphical representations showing observational studies to determine whether placental SPINT1 is altered in cases of human SGA. To do this, a cohort of placentas was selected from either control, preeclamptic or SGA pregnancies. […] No change in SPINT1 mRNA expression was detected in placentas collected from patients who delivered at >34 weeks gestation (B). SPINT1 protein expression was assessed using Western blot and commercially available antibodies (C,D). […] Growth restriction is often associated with placental insufficiency and poor oxygen delivery to the placenta, resulting in placental hypoxia. The inventors assessed whether exposure of primary placental cells (cytotrophoblast cells isolated from term human placentas) to low oxygen conditions (1% Oxygen for hypoxia vs 8% oxygen for normoxia) would alter SPINT1 mRNA and protein expression and protein secretion. […] Given previous evidence in mice that a lack of SPINT1 may be associated with a poorly developed placenta, the inventors next set out to assess whether silencing SPINT1 using siRNA knockdown in the HTR8 placental cell line would affect cellular proliferation assessed in real time using the xCELLigence system. […] To do this, a commercially available SPINT1 mimetic called SRI31215 (Glixx laboratories) was administered to HTR8 cells and their proliferation monitored using the xCELLigence system. […]

CC1CN(CC2CCN(Cc3ccccc3)CC2)C(=O)N(c2cccc(C(=N)N)c2)C1.O=C(O)C(F)(F)F (stereo not shown) [SRI31215]
HTR8 proliferation: enhanced HTR8 proliferation

Source: patent US12546786B2, “Circulatory biomarkers for placental or fetal health” (THE UNIVERSITY OF MELBOURNE, priority 2018, dated 2026)
